Laboratory results as given in publication PMC6950716, “Bioactive Secondary Metabolites from the Culture of the Mangrove-Derived Fungus Daldinia eschscholtzii HJ004” (Marine Drugs, 2019).
In brackets after ≈: the same amount, converted by molar mass.

Molecular target: α-glucosidase
Assay: α-glucosidase inhibition assay in 96-well plates (modified Sawada et al.)
Format: biochemical

Compound	IC50
COC1=CC(=O)c2c(cc3c(c2O)COC3)C1=O [compound 4, 5-hydroxy-2-methoxynaphtho[9–c]furan-1,4-dione]	5.7 µg/mL (≈ 23.2 µM)
COc1cccc2cc(C(C)=O)oc12 [compound 7, 2-acetyl-7-methoxybenzofuran]	1.1 µg/mL (≈ 5.78 µM)
